Results as given in patent US10183021B2, “sGC stimulators” (Ironwood Pharmaceuticals, Inc., priority 2013, dated 2019).
Where two headings read alike, the source gives them in different places.

Target: soluble guanylate cyclase (sGC) (Homo sapiens (Human), UniProt Q02108+Q02153)
Test: sGC-HEK-cGMP assay, new protocol with DETA-NONOate, LC/MS detection (Example 2C)
Type: cell-based
Details: read-out: Absolute EC50 (uM) - binned
Procedure: Human embryonic kidney cells (HEK293), endogenously expressing soluble guanylate cyclase (sGC), were used to evaluate the activity of test compounds. Compounds stimulating the sGC enzyme should cause an increase in the intracellular concentration of cGMP. HEK 293 cells were seeded in Dulbecco's Modification of Eagle's Medium supplemented with fetal bovine serum (10% final) and penicillin (100 U/mL)/streptomycin (100 μg/mL) in a 50 μL volume at a density of 1.5×10^4 cells/well in a poly-D-lysine coated 384 well flat bottom plate. Cells were incubated overnight at 37° C. in a humidified chamber with 5% CO2. Medium was aspirated and cells were washed with 1× Hank's Buffered Saline Salt Solution (50 μL). Cells were then incubated for 15 minutes at 37° C. with 50 μL of a 0.5 mM 3-isobutyl-1-methylxanthine (IBMX) solution. Test article and Diethylenetriamine NONOate (DETA-NONOate) solutions (x μM concentration for test article solution and 10 μM concentration for DETA-NONOate solution; wherein x is one of the following concentrations);
were then added to the assay mixture and the resulting mixture incubated at 37° C. for 20 minutes. After the 20 minute incubation, the assay mixture was aspirated and 10% acetic acid containing 150 ng/mL+3-cGMP (internal standard for LCMS) (50 μL) was added to the cells. The plate was incubated at 4° C. for 30 minutes in the acetic acid solution to stop the reaction and lyse the cells. The plates were then centrifuged at 1,000 g for 3 minutes at 4° C. and the supernatant transferred to a clean reaction plate for LCMS analysis.
cGMP concentrations were determined from each sample using the LCMS conditions below (Table 5) and calculated standard curve.
Data were normalized to a high control using the following equation: 100*(Sample−Low Control)/(High Control−Low Control), where the low control is the average of 16 samples treated with 1% DMSO, and the high control is the average of 16 samples treated with 30 μM of 1-329 Data were fit using a 4-parameter fit (log(agonist) vs. response—variable slope) using GraphPad Prism Software v.5. n=2 for all compounds. […] Compounds failing to elicit a minimum response of 50% are reported as >30 μM.

Chain of soluble guanylate cyclase (sGC) (Q02153 whole entry): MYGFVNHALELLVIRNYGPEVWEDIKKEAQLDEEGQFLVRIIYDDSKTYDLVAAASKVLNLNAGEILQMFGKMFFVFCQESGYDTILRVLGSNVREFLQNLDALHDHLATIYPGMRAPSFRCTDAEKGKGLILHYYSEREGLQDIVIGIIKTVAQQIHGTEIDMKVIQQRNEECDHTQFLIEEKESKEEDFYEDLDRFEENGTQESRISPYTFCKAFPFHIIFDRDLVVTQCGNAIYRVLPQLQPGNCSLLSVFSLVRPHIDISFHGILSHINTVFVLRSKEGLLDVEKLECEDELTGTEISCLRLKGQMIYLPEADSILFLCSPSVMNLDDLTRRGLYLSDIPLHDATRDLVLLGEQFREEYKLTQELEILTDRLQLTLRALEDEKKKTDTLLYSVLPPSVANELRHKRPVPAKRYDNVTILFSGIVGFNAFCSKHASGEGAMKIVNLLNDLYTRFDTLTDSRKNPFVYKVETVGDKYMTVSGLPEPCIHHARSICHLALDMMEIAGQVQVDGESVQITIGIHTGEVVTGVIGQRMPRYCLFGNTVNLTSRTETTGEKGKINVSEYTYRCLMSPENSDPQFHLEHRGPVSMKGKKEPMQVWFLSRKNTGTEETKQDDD
Chain of soluble guanylate cyclase (sGC) (Q02108 whole entry): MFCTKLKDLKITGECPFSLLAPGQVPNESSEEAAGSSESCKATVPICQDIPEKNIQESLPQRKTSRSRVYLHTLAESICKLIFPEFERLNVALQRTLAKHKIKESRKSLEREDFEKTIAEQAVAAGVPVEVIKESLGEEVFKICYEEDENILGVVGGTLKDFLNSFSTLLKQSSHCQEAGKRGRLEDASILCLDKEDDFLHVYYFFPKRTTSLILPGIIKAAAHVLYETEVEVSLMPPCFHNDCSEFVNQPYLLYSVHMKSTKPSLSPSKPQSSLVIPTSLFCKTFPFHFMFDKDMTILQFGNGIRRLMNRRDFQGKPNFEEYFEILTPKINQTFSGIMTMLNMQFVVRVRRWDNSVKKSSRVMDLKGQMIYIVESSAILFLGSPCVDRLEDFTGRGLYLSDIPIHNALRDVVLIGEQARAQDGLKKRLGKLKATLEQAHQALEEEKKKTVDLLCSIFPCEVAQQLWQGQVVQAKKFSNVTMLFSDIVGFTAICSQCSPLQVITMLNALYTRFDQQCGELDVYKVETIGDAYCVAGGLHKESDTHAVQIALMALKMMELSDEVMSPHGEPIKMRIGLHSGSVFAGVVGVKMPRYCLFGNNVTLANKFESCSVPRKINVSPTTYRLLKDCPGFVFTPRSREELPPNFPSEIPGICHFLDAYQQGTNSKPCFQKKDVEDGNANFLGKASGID

| Compound | EC50 | EC50 (HEK293 cells, 10 μM DETA-NONOate, LC/MS detection, concentration eliciting 50% of high control response (30 μM I-329)) |
| --- | --- | --- |
| OCC(CO)Nc1cnnc(-c2cc(-c3ccon3)n(Cc3ccccc3F)n2)n1 [Compound I-416] | > 1 µM |  |
| NC(=O)CNc1nc(-c2cc(-c3ccon3)n(Cc3ccccc3F)n2)ncc1F [Compound I-417] | 0.101 to 1 µM |  |
| O=C(O)CC(Nc1nc(-c2cc(-c3ccon3)n(Cc3ccccc3F)n2)ncc1F)C(F)(F)F (stereo not drawn) [Compound I-418] | 0.101 to 1 µM |  |
| NC(=O)CC(Nc1nc(-c2cc(-c3ccon3)n(Cc3ccccc3F)n2)ncc1F)C(F)(F)F (stereo not drawn) [Compound I-419] | > 1 µM |  |
| CCOC(=O)C1(C)C(=O)Nc2nc(-c3cc(-c4ccon4)n(Cc4ccccc4F)n3)nc(N)c21 (stereo not drawn) [Compound I-420] | < 0.1 µM |  |
| CC1(C(N)=O)C(=O)Nc2nc(-c3cc(-c4ccon4)n(Cc4ccccc4F)n3)nc(N)c21 (stereo not drawn) [Compound I-421] | 0.101 to 1 µM |  |
| CC1(C(=O)NC2CC2)C(=O)Nc2nc(-c3cc(-c4ccon4)n(Cc4ccccc4F)n3)nc(N)c21 (stereo not drawn) [Compound I-422] | 0.101 to 1 µM |  |
| O=S(=O)(C1CCN(c2nc(-c3cc(-c4ccon4)n(Cc4ccccc4F)n3)ncc2F)CC1)N1CCOCC1 [Compound I-423] | < 0.1 µM |  |
| O=C(O)[C@@H]1CN(c2nc(-c3cc(-c4ccon4)n(Cc4ccccc4F)n3)ncc2F)C[C@H]1C(F)(F)F [Compound I-424] | < 0.1 µM |  |
| O=C(NS(=O)(=O)C1CCN(c2nc(-c3cc(-c4ccon4)n(Cc4ccccc4F)n3)ncc2F)CC1)C1CC1 [Compound I-425] | < 0.1 µM |  |
| CC(=O)NS(=O)(=O)C1CCN(c2nc(-c3cc(-c4ccon4)n(Cc4ccccc4F)n3)ncc2F)CC1 [Compound I-426] | < 0.1 µM |  |
| NS(=O)(=O)C1CCN(c2nc(-c3cc(-c4ccon4)n(Cc4ccccc4F)n3)ncc2F)C1 (stereo not drawn) [Compound I-427] | < 0.1 µM |  |
| OCCN(CCO)c1nc(-c2cc(-c3ccon3)n(Cc3ccccc3F)n2)ncc1F [Compound I-428] | < 0.1 µM |  |
| O=C(NS(=O)(=O)C1CCN(c2nc(-c3cc(-c4ccon4)n(Cc4ccccc4F)n3)ncc2F)C1)C1CC1 (stereo not drawn) [Compound I-429] | < 0.1 µM |  |
| OC[C@@H]1[C@H](O)CCN1c1nc(-c2cc(-c3ccon3)n(Cc3ccccc3F)n2)ncc1F [Compound I-430] | < 0.1 µM |  |
| CC(O)CN(CC(C)O)c1nc(-c2cc(-c3ccon3)n(Cc3ccccc3F)n2)ncc1F (stereo not drawn) [Compound I-431] | < 0.1 µM |  |
| O=S(=O)(CCNc1nc(-c2cc(-c3ccon3)n(Cc3ccccc3F)n2)ncc1F)NO [Compound I-432] | < 0.1 µM |  |
| O=C1C=C(O)CN(c2nc(-c3cc(-c4ccon4)n(Cc4ccccc4F)n3)ncc2F)C1 [Compound I-433] | > 1 µM |  |
| OCC1(O)CCN(c2nc(-c3cc(-c4ccon4)n(Cc4ccccc4F)n3)ncc2F)CC1 [Compound I-434] | < 0.1 µM |  |
| OC[C@@H]1C[C@@H](O)CN1c1nc(-c2cc(-c3ccon3)n(Cc3ccccc3F)n2)ncc1F [Compound I-435] | < 0.1 µM |  |
| O=S(=O)(CCNc1nc(-c2cc(-c3ccon3)n(Cc3ccccc3F)n2)ncc1F)NC[C@H](O)CO [Compound I-437] | 0.101 to 1 µM |  |
| NC(=O)C1(O)CCN(c2nc(-c3cc(-c4ccon4)n(Cc4ccccc4F)n3)ncc2F)CC1 [Compound I-438] | < 0.1 µM |  |
| O=S(=O)(CCNc1nc(-c2cc(-c3ccon3)n(Cc3ccccc3F)n2)ncc1F)NCCO [Compound I-439] | < 0.1 µM |  |
| O=C(NC1CN(c2nc(-c3cc(-c4ccon4)n(Cc4ccccc4F)n3)ncc2F)C1)C1(O)CC1 [Compound I-440] | 0.101 to 1 µM |  |
| O=c1[nH]nc(CNc2nc(-c3cc(-c4ccon4)n(Cc4ccccc4F)n3)ncc2F)[nH]1 [Compound I-441] | 0.101 to 1 µM |  |
| O=c1nc[nH]n1-c1nc(-c2cc(-c3ccon3)n(Cc3ccccc3F)n2)ncc1F [Compound I-442] | > 1 µM |  |
| NC(=O)C(O)CNc1nc(-c2cc(-c3ccon3)n(Cc3ccccc3F)n2)ncc1F (stereo not drawn) [Compound I-443] | 0.101 to 1 µM |  |

| Compound | EC50 | EC50 (HEK293 cells, 10 μM DETA-NONOate, LC/MS detection, concentration eliciting 50% of high control response (30 μM I-329)) |
| --- | --- | --- |
| O=S(=O)(CC(F)(F)F)Nc1ccnc(-c2cc(-c3ccon3)n(Cc3ccccc3F)n2)n1 [Compound I-444] | 0.101 to 1 µM | 0.101 to 1 µM |
| O=S(=O)(CCC(F)(F)F)Nc1nc(-c2cc(-c3ccon3)n(Cc3ccccc3F)n2)ncc1F [Compound I-445] | 0.101 to 1 µM |  |
| COCCS(=O)(=O)Nc1nc(-c2cc(-c3ccon3)n(Cc3ccccc3F)n2)ncc1F [Compound I-446] | > 1 µM |  |
| O=C(O)c1ccc(CNc2nc(-c3cc(-c4ccon4)n(Cc4ccccc4F)n3)ncc2F)s1 [Compound I-448] | 0.101 to 1 µM |  |
| O=C(O)CCCCNc1nc(-c2cc(-c3ccon3)n(Cc3ccccc3F)n2)ncc1F [Compound I-449] | < 0.1 µM |  |
| CC(=O)c1cc(-c2ncc(F)c(O)n2)nn1Cc1ccccc1F [Compound I-450] | > 1 µM |  |
| CC(=O)c1cc(-c2ncc(F)c(N(C)CC3(C(=O)O)CC3)n2)nn1Cc1ccccc1F [Compound I-451] | 0.101 to 1 µM |  |
| NS(=O)(=O)Nc1ccnc(-c2cc(-c3ccon3)n(Cc3ccccc3F)n2)n1 [Compound I-456] | 0.101 to 1 µM |  |
| C[C@H]1CCCN(c2nc(-c3cc(C#N)n(Cc4ccccc4F)n3)ncc2F)[C@H]1C(=O)O [Compound I-457] | 0.101 to 1 µM |  |
| O=C1C=C(O)CC(C(=O)Nc2ccnc(-c3cc(-c4ccon4)n(Cc4ccccc4F)n3)n2)C1 (stereo not drawn) [Compound I-458] | > 1 µM |  |
| O=C1CCC(C(=O)Nc2ccnc(-c3cc(-c4ccon4)n(Cc4ccccc4F)n3)n2)N1 (stereo not drawn) [Compound I-459] | > 1 µM |  |
| N#CC1(C(=O)Nc2nc(-c3cc(-c4ccon4)n(Cc4ccccc4F)n3)ncc2F)CC1 [Compound I-460] | > 1 µM |  |
| O=C(Nc1ccnc(-c2cc(-c3ccon3)n(Cc3ccccc3F)n2)n1)C1(OCc2ccccc2)CC1 [Compound I-461] | > 1 µM |  |
| CC(=O)c1cc(-c2ncc(F)c(NC(CO)CO)n2)nn1Cc1ccccc1F [Compound I-462] | > 1 µM |  |
| CC(=O)c1cc(-c2ncc(F)c(N3CCC[C@H](C)[C@@H]3C(=O)O)n2)nn1Cc1ccccc1F [Compound I-463] | 0.101 to 1 µM |  |
| O=C1CC(C(=O)Nc2ccnc(-c3cc(-c4ccon4)n(Cc4ccccc4F)n3)n2)CN1 (stereo not drawn) [Compound I-464] | 0.101 to 1 µM |  |
| O=C(Nc1nc(-c2cc(-c3ccon3)n(Cc3ccccc3F)n2)ncc1F)C(F)(F)F [Compound I-465] | 0.101 to 1 µM |  |
| Fc1ccccc1Cn1nc(-c2ncc(F)c(NCC(F)(F)F)n2)cc1-c1ccon1 [Compound I-466] | < 0.1 µM |  |
| O=C(O)C(O)(CNc1nc(-c2cc(-c3ccon3)n(Cc3ccccc3F)n2)ncc1F)C(F)(F)F (stereo not drawn) [Compound I-467] | > 1 µM |  |
| O=C(Nc1nc(-c2cc(-c3ccon3)n(Cc3ccccc3F)n2)ncc1N1CCOCC1)C(O)(C(F)(F)F)C(F)(F)F [Compound I-468] | 0.101 to 1 µM |  |
| O=C(Cc1nccs1)Nc1ccnc(-c2cc(-c3ccon3)n(Cc3ccccc3F)n2)n1 [Compound I-469] | 0.101 to 1 µM |  |
| O=C(N1CC(Nc2nc(-c3cc(-c4ccon4)n(Cc4ccccc4F)n3)ncc2F)C1)C1(O)CC1 [Compound I-470] | < 0.1 µM |  |
| O=C(CC(F)(F)F)Nc1ccnc(-c2cc(-c3ccon3)n(Cc3ccccc3F)n2)n1 [Compound I-471] | 0.101 to 1 µM |  |
| CS(=O)(=O)CS(=O)(=O)Nc1ccnc(-c2cc(-c3ccon3)n(Cc3ccccc3F)n2)n1 [Compound I-472] | > 1 µM |  |
| N#Cc1cc(-c2ncc(F)c(NCC(O)(C(F)(F)F)C(F)(F)F)n2)nn1Cc1ccccc1F [Compound I-474] | > 1 µM |  |
| CC(=O)O[C@@H](C(=O)Nc1ccnc(-c2cc(-c3ccon3)n(Cc3ccccc3F)n2)n1)C(F)(F)F [Compound I-475] | 0.101 to 1 µM |  |
